In ChEMBL document CHEMBL1201862, “PubChem BioAssay data set” (2004):
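These data come from cells grown in 96-well plates and exposed to compound for 48 hours at five concentrations. Here, GI50 denotes the concentration required for 50% inhibition of growth.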 Activity calls are given as the source filed them. Rule as the data show it: active = GI50 up to about 1.1 µM and inactive = higher.

Experiments:
Test in all cases: DTP human tumour cell line panel, 48 h
EKVX = tested on: EKVX
IGROV-1 = tested on: IGROV-1
SF-539 = tested on: SF-539
LOX IMVI = tested on: LOX IMVI
KM-20L2 = tested on: KM-20L2
SK-MEL-28 = tested on: SK-MEL-28
DLD-1 = tested on: DLD-1
M19-MEL = tested on: M19-MEL
OVCAR-5 = tested on: OVCAR-5
M14 = tested on: M14
ACHN = tested on: ACHN
SF-268 = tested on: SF-268
HOP-92 = tested on: HOP-92
786-0 = tested on: 786-0
OVCAR-3 = tested on: OVCAR-3
UO-31 = tested on: UO-31
RXF 393 = tested on: RXF 393
OVCAR-8 = tested on: OVCAR-8
MOLT-4 = tested on: MOLT-4
SNB-19 = tested on: SNB-19
A549 = tested on: A549
DMS-114 = tested on: DMS-114
NCI-H522 = tested on: NCI-H522
SNB-75 = tested on: SNB-75
KM12 = tested on: KM12
OVCAR-4 = tested on: OVCAR-4
RPMI-8226 = tested on: RPMI-8226
HCC 2998 = tested on: HCC 2998
LXFL 529 = tested on: LXFL 529
SR = tested on: SR
SW-620 = tested on: SW-620
TK-10 = tested on: TK-10
XF498 = tested on: XF498
K562 = tested on: K562
A498 = tested on: A498
UACC-62 = tested on: UACC-62
COLO 205 = tested on: COLO 205
NCI-H23 = tested on: NCI-H23
UACC-257 = tested on: UACC-257
HCT-116 = tested on: HCT-116
SK-MEL-5 = tested on: SK-MEL-5
CCRF-CEM = tested on: CCRF-CEM
HT-29 = tested on: HT-29
DMS-273 = tested on: DMS-273
HL-60 = tested on: HL-60
SNB-78 = tested on: SNB-78
SF-295 = tested on: SF-295
U-251 = tested on: U-251
NCI-H460 = tested on: NCI-H460
SK-OV-3 = tested on: SK-OV-3
SN12C = tested on: SN12C
HOP-18 = tested on: HOP-18
NCI-H226 = tested on: NCI-H226
HOP-62 = tested on: HOP-62
HCT-15 = tested on: HCT-15
CAKI-1 = tested on: CAKI-1
SK-MEL-2 = tested on: SK-MEL-2
Malme-3M = tested on: Malme-3M
NCI/ADR-RES = tested on: NCI/ADR-RES
MCF7 = tested on: MCF7

Measured: GI50

[O-]c1on[n+]2c1c(Nc1ccc(Cl)cc1)nc1ccccc12
inactive: EKVX > 100 µM | IGROV-1 > 100 µM | SF-539 > 100 µM | LOX IMVI > 100 µM | KM-20L2 > 100 µM | SK-MEL-28 > 100 µM | DLD-1 > 100 µM | M19-MEL > 100 µM | OVCAR-5 > 100 µM | M14 > 100 µM | ACHN > 100 µM | SF-268 > 100 µM | HOP-92 > 100 µM | 786-0 > 100 µM | OVCAR-3 > 100 µM | UO-31 > 100 µM | RXF 393 > 100 µM | OVCAR-8 > 100 µM | MOLT-4 > 100 µM | SNB-19 > 100 µM | A549 > 100 µM | DMS-114 > 100 µM | NCI-H522 > 100 µM | SNB-75 85.1 µM | KM12 > 100 µM | OVCAR-4 > 100 µM | RPMI-8226 > 100 µM | HCC 2998 > 100 µM | LXFL 529 > 100 µM | SR > 100 µM | SW-620 > 100 µM | TK-10 > 100 µM | XF498 > 100 µM | K562 > 100 µM | A498 > 100 µM | UACC-62 > 100 µM | COLO 205 > 100 µM | NCI-H23 > 100 µM | UACC-257 > 100 µM | HCT-116 > 100 µM | SK-MEL-5 > 100 µM | CCRF-CEM > 100 µM | HT-29 > 100 µM | DMS-273 > 100 µM | HL-60 > 100 µM | SNB-78 > 100 µM | SF-295 > 100 µM | U-251 > 100 µM | NCI-H460 > 100 µM | SK-OV-3 > 100 µM | SN12C > 100 µM

CC(=O)Nc1ccc(-c2nnc(SCC(=O)Nc3ccccc3)o2)cc1
92 µM: HCT-15
inactive: IGROV-1 47.6 µM | SF-539 71.1 µM | LOX IMVI 33.5 µM | KM-20L2 > 100 µM | SK-MEL-28 > 100 µM | DLD-1 59 µM | M19-MEL 74.8 µM | OVCAR-5 > 100 µM | M14 86.3 µM | ACHN > 100 µM | SF-268 > 100 µM | HOP-92 > 100 µM | 786-0 > 100 µM | OVCAR-3 > 100 µM | UO-31 79.6 µM | RXF 393 89.9 µM | HOP-18 > 100 µM | NCI-H226 82.4 µM | OVCAR-8 > 100 µM | HOP-62 > 100 µM | MOLT-4 > 100 µM | A549 > 100 µM | DMS-114 39.8 µM | NCI-H522 60.3 µM | SNB-75 > 100 µM | KM12 65 µM | OVCAR-4 > 100 µM | RPMI-8226 81.7 µM | CAKI-1 > 100 µM | SK-MEL-2 > 100 µM | LXFL 529 34.6 µM | SR > 100 µM | SW-620 > 100 µM | TK-10 > 100 µM | K562 > 100 µM | UACC-62 54.5 µM | COLO 205 > 100 µM | NCI-H23 39.5 µM | UACC-257 93.8 µM | HCT-116 31.2 µM | SK-MEL-5 69 µM | Malme-3M > 100 µM | CCRF-CEM 59.4 µM | HT-29 60.5 µM | DMS-273 50.6 µM | HL-60 89.1 µM | SNB-78 80 µM | SF-295 77.6 µM | U-251 43.7 µM | NCI-H460 > 100 µM | SK-OV-3 > 100 µM | SN12C 90.4 µM

CC1(C)S[C@@H]2[C@H](NC(=O)CCC[C@@H](N)C(=O)O)C(=O)N2[C@H]1C(=O)O [ADICILLIN]
> 50 µM: HCT-15
inactive: EKVX > 50 µM | IGROV-1 > 50 µM | SF-539 > 50 µM | LOX IMVI > 50 µM | KM-20L2 > 24.8 µM | SK-MEL-28 > 50 µM | DLD-1 > 50 µM | M19-MEL > 50 µM | OVCAR-5 23.3 µM | NCI/ADR-RES > 31.6 µM | SF-268 > 50 µM | HOP-92 > 50 µM | OVCAR-3 > 50 µM | UO-31 > 50 µM | RXF 393 > 50 µM | HOP-18 > 50 µM | NCI-H226 > 50 µM | OVCAR-8 > 19.9 µM | HOP-62 > 50 µM | MOLT-4 > 50 µM | SNB-19 > 50 µM | A549 > 50 µM | NCI-H522 > 50 µM | SNB-75 > 50 µM | KM12 > 50 µM | OVCAR-4 > 50 µM | RPMI-8226 > 50 µM | HCC 2998 > 50 µM | CAKI-1 > 50 µM | SK-MEL-2 > 50 µM | MCF7 > 50 µM | SW-620 > 31.6 µM | XF498 24.1 µM | K562 > 50 µM | A498 > 44.7 µM | UACC-62 > 50 µM | COLO 205 > 50 µM | NCI-H23 > 50 µM | UACC-257 > 50 µM | HCT-116 > 50 µM | SK-MEL-5 > 15 µM | Malme-3M > 50 µM | CCRF-CEM > 50 µM | HT-29 > 50 µM | DMS-273 > 50 µM | HL-60 > 50 µM | SNB-78 > 50 µM | SF-295 > 50 µM | U-251 > 25.6 µM | NCI-H460 > 50 µM | SK-OV-3 > 41 µM | SN12C > 50 µM

C1=C2/CC[C@H](Sc3ccccc3)[C@H]2C2(CCCCC/1)OCCO2
28.2 µM: HCT-15
inactive: EKVX 18.5 µM | IGROV-1 54.7 µM | SF-539 40.4 µM | LOX IMVI 18.7 µM | KM-20L2 21.1 µM | SK-MEL-28 > 100 µM | DLD-1 61.4 µM | M19-MEL 25.1 µM | OVCAR-5 29.5 µM | M14 27.9 µM | ACHN 35.6 µM | SF-268 82.8 µM | HOP-92 18.6 µM | 786-0 40.2 µM | OVCAR-3 27.7 µM | UO-31 27 µM | HOP-18 72.8 µM | OVCAR-8 26.7 µM | HOP-62 40.4 µM | SNB-19 36.9 µM | A549 51.8 µM | NCI-H522 17.9 µM | SNB-75 27.9 µM | KM12 29.9 µM | RPMI-8226 24.4 µM | HCC 2998 22.3 µM | CAKI-1 20.2 µM | SK-MEL-2 16.9 µM | LXFL 529 46.7 µM | SR 42.9 µM | SW-620 29 µM | TK-10 > 100 µM | K562 32.1 µM | UACC-62 19.6 µM | COLO 205 19.5 µM | NCI-H23 34.8 µM | UACC-257 20.2 µM | HCT-116 39.8 µM | SK-MEL-5 29.6 µM | Malme-3M 28.5 µM | CCRF-CEM 24.5 µM | HT-29 34.6 µM | DMS-273 39.4 µM | HL-60 22.2 µM | SNB-78 94 µM | SF-295 37.8 µM | U-251 21.8 µM | NCI-H460 63.4 µM | SK-OV-3 31 µM | SN12C > 100 µM
